Measured values published in patent US6617124B1, “7-alkoxycoumarins as cytochrome p450 substrates” (SmithKline Beecham p.l.c., priority 1998, dated 2003).

Row | melting point | Compound
1 | 109 to 109.5 °C | CNCc1cc(=O)oc2cc(OC)ccc12
2 | 97 °C | COc1ccc2c(CN(C)C)cc(=O)oc2c1
